Some test systems named below: SNB-75; HCC 2998; UO-31; HOP-62; K562; EKVX; HT-29; TK-10; HL-60; A498; HCT-15; RXF 393; NCI-H522; 786-0; CCRF-CEM; NCI/ADR-RES; MDA-MB-435; MCF7.
Common to all, as to experiment: NCI tumour cell line growth inhibition, 48 h

Molecules are shown by their SMILES.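 1) Cells in 96-well plates. 2) Compound, 48 h, 5 concentrations. 3) Linear interpolation between surrounding doses. 4) Unreached endpoint = highest concentration. GI50 marks 50% less growth.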 Active and inactive are the calls of the source. Cut-off read from the data, not from the text of the source: active = GI50 up to about 1.1 µM and inactive = higher.

These results are taken from ChEMBL document CHEMBL1201862, “PubChem BioAssay data set” (2004).

Take `Cn1nc(-c2ccccc2)c2c(/C=C/c3ccccc3)onc2c1=O`: the GI50 with SNB-75 was 27 µM (inactive); in the assay with HCC 2998, 83.6 µM (inactive); in the assay with UO-31, 6.82 µM (inactive); in the assay with HOP-62 it was 41.8 µM (inactive); in the assay on K562 it was > 100 µM (inactive); with EKVX, 67.1 µM (inactive). Further, the GI50 with HT-29 was > 100 µM (inactive); with TK-10 it was > 100 µM (inactive); in the assay with HL-60, > 100 µM (inactive); in the assay on A498, > 100 µM (inactive); in the assay on HCT-15, over 100 µM; in the assay on RXF 393, 46.1 µM (inactive). The GI50 is 37.3 µM (inactive) with NCI-H522, 33 µM (inactive) with 786-0 and > 100 µM (inactive) with CCRF-CEM.
With `CC(=O)Nc1ccc(/C=C/C(=O)c2sc(-n3nc(-c4ccccc4)cc3-c3ccccc3)nc2C)cc1`, the GI50 is > 10 µM (inactive) with SNB-75; > 10 µM (inactive) with HCC 2998; > 10 µM (inactive) in the assay on UO-31; > 10 µM (inactive) in the assay on HOP-62; > 10 µM (inactive) in the assay on K562; 8.99 µM (inactive) in the assay on EKVX. Further, the GI50 was 84.7 µM (inactive) with HT-29; > 10 µM (inactive) with TK-10; > 10 µM (inactive) in the assay on HL-60; > 10 µM (inactive) with A498; over 10 µM with HCT-15; > 10 µM (inactive) in the assay with RXF 393. For the same compound, the GI50 is 35.9 µM (inactive) with NCI-H522, > 10 µM (inactive) in the assay on 786-0 and > 10 µM (inactive) with CCRF-CEM.
As for `Cc1c(Cl)ccc2c1NC(=O)C2(O)CC(=O)c1ccc(Cl)cc1` (stereo unspecified), the GI50 in the assay on SNB-75 is 76.2 µM (inactive); in the assay on HCC 2998, > 42 µM (inactive); in the assay on UO-31 it was > 100 µM (inactive); in the assay on HOP-62 it was 97.3 µM (inactive); in the assay on K562, 22.8 µM (inactive); in the assay with EKVX, > 55.8 µM (inactive). In addition, the GI50 in the assay with HT-29 was 35 µM (inactive); in the assay on TK-10 it was > 100 µM (inactive); in the assay with HL-60, 28.6 µM (inactive); with A498, > 43.3 µM (inactive); with HCT-15 it was 28.2 µM; in the assay on RXF 393 it was 31.2 µM (inactive). For the same compound, the results for the GI50 in the assay on NCI-H522, in the assay with 786-0 and in the assay with CCRF-CEM were > 61.5 µM (inactive), 47.1 µM (inactive) and 14.5 µM (inactive), respectively.
Take `C/C=C/C/C=C/CCC(=O)C1OC1C(N)=O` (stereo unspecified): the GI50 in the assay with SNB-75 is 14.3 µM (inactive); with HCC 2998, 17.3 µM (inactive); in the assay on UO-31, 11.8 µM (inactive); with HOP-62 it was 2.52 µM (inactive); in the assay with K562 it was 15.9 µM (inactive); in the assay on NCI/ADR-RES, 20 µM (inactive). In addition, the GI50 in the assay on EKVX is 18.9 µM (inactive); in the assay with HT-29, 17.3 µM (inactive); in the assay with TK-10 it was 13.2 µM (inactive); in the assay on MDA-MB-435, 14.1 µM (inactive); in the assay on MCF7 it was 14.5 µM (inactive); with HCT-15, 12.6 µM. Besides, the GI50 with RXF 393 was 9.4 µM (inactive); with NCI-H522, 12.4 µM (inactive); in the assay on 786-0, 13.1 µM (inactive); in the assay on CCRF-CEM, 11.4 µM (inactive).
With `C=CCC12CC(=O)CCC1c1ccc(OC)cc1C2=O` (stereo unspecified), the GI50 in the assay with SNB-75, in the assay with HCC 2998, with UO-31, with HOP-62, in the assay on K562 and in the assay with EKVX was > 100 µM (inactive) each time. In addition, the GI50 is > 100 µM (inactive) in the assay with HT-29; > 100 µM (inactive) with TK-10; > 100 µM (inactive) with HL-60; > 100 µM (inactive) in the assay on A498; over 100 µM in the assay with HCT-15; > 100 µM (inactive) with RXF 393. Besides, the GI50 with NCI-H522, in the assay with 786-0 and with CCRF-CEM was > 100 µM (inactive) throughout.
As to `N#CC12CCC(O)C(CC1)C2=O` (stereo unspecified), the GI50 with SNB-75, in the assay with HCC 2998, with UO-31, with HOP-62, with K562 and with EKVX was > 100 µM (inactive) in each case. Moreover, the GI50 in the assay with HT-29 was > 100 µM (inactive); in the assay on TK-10, > 100 µM (inactive); with HL-60, > 100 µM (inactive); with A498, > 100 µM (inactive); in the assay with HCT-15, over 100 µM; in the assay on RXF 393, > 100 µM (inactive). The GI50 in the assay on NCI-H522, with 786-0 and in the assay on CCRF-CEM was > 100 µM (inactive) each time.
Regarding `CC(=O)C1C(=O)C(=O)N(c2ccccc2N2C(=O)C(=O)C(C(C)=O)C2=O)C1=O` (stereo unspecified), the GI50 is > 100 µM (inactive) in the assay on SNB-75; > 100 µM (inactive) with HCC 2998; > 100 µM (inactive) in the assay with UO-31; > 100 µM (inactive) in the assay with HOP-62; > 100 µM (inactive) with K562; 39.9 µM (inactive) with EKVX. The GI50 in the assay on HT-29 was > 100 µM (inactive); in the assay with TK-10, > 100 µM (inactive); in the assay on HL-60, > 100 µM (inactive); in the assay with A498 it was > 100 µM (inactive); with HCT-15, over 100 µM; with RXF 393, > 100 µM (inactive). Moreover, the GI50 in the assay with NCI-H522, with 786-0 and in the assay on CCRF-CEM was > 100 µM (inactive) each time.
Regarding `O=C1C(O)=C(CN(CCCl)CCCl)C(=O)c2ccccc21`, the GI50 is 73.6 µM (inactive) in the assay with SNB-75; 97.5 µM (inactive) with HCC 2998; 37.4 µM (inactive) in the assay with UO-31; > 100 µM (inactive) with HOP-62; 45.6 µM (inactive) in the assay on K562; > 100 µM (inactive) in the assay on EKVX. Moreover, the GI50 in the assay on HT-29 was 42.8 µM (inactive); in the assay on TK-10, > 100 µM (inactive); in the assay with HL-60 it was 31 µM (inactive); in the assay with A498, > 100 µM (inactive); with HCT-15, 31 µM; with RXF 393 it was 28 µM (inactive). The GI50 with NCI-H522 was 66.8 µM (inactive); in the assay with 786-0, 28.2 µM (inactive); in the assay on CCRF-CEM it was 42.3 µM (inactive).
Turning to `COc1nc(NC2OCC(O)C(O)C2O)c(NC2OCC(O)C(O)C2O)c(=O)n1C` (stereo unspecified), the GI50 with SNB-75, in the assay on HCC 2998, in the assay with UO-31, with HOP-62, in the assay with K562 and in the assay on EKVX was > 100 µM (inactive) throughout. The GI50 with HT-29 is > 100 µM (inactive); in the assay on TK-10, > 100 µM (inactive); in the assay on HL-60 it was > 100 µM (inactive); with A498 it was > 100 µM (inactive); in the assay with HCT-15, over 100 µM; with RXF 393, > 100 µM (inactive). The GI50 with NCI-H522, with 786-0 and with CCRF-CEM was > 100 µM (inactive) each time.
As for `COc1cc(C)c(C)c(OC(=O)c2c(C)c(C)c(OC)c(C)c2OC)c1C`, the GI50 was 4.04 µM (inactive) in the assay with SNB-75; 13.8 µM (inactive) in the assay on HCC 2998; 32.4 µM (inactive) with UO-31; 15 µM (inactive) in the assay with HOP-62; 3.83 µM (inactive) with K562; 15.3 µM (inactive) with EKVX. For the same compound, the GI50 in the assay on HT-29 is 3.85 µM (inactive); in the assay with TK-10, 25.6 µM (inactive); with HL-60 it was 10 µM (inactive); in the assay on A498, 16.6 µM (inactive); with HCT-15 it was 3.68 µM; in the assay on RXF 393, 13 µM (inactive). In addition, the GI50 is 1.9 µM (inactive) in the assay with NCI-H522, 12.3 µM (inactive) in the assay on 786-0 and 13.2 µM (inactive) in the assay on CCRF-CEM.
Take `COCN(C)c1nc(N(C)C)nc(N(C)C)n1`: the GI50 in the assay on SNB-75, with HCC 2998, with UO-31, in the assay with HOP-62, in the assay with K562 and in the assay with EKVX was > 100 µM (inactive) in each case. Moreover, the GI50 was > 100 µM (inactive) with HT-29; > 100 µM (inactive) in the assay on TK-10; > 100 µM (inactive) with HL-60; > 100 µM (inactive) in the assay on A498; over 100 µM with HCT-15; 40.3 µM (inactive) in the assay on RXF 393. The results for the GI50 with NCI-H522, in the assay with 786-0 and with CCRF-CEM were 9.06 µM (inactive), > 100 µM (inactive) and > 100 µM (inactive), respectively.
`CC(C)N1C(C)[C@@H](c2ccccc2)O[P@@]1(=O)CC1=CCCCC1` (stereo partly specified): the GI50 in the assay on SNB-75 is > 100 µM (inactive); with HCC 2998, > 100 µM (inactive); in the assay on UO-31, > 100 µM (inactive); in the assay on HOP-62 it was > 100 µM (inactive); with K562, 48.6 µM (inactive); in the assay on EKVX, > 100 µM (inactive). Further, the GI50 in the assay on HT-29 was > 100 µM (inactive); with TK-10, > 100 µM (inactive); in the assay with HL-60, 24.1 µM (inactive); with A498, > 100 µM (inactive); in the assay with HCT-15 it was over 100 µM; in the assay with RXF 393 it was 68.7 µM (inactive). For the same compound, the figures for the GI50 with NCI-H522, in the assay with 786-0 and with CCRF-CEM were > 100 µM (inactive), > 100 µM (inactive) and 48.5 µM (inactive), respectively.
As to `C[C@]12CCC[C@H](Cl)C1(O)C[C@H](C(=O)O)CC2` (stereo partly specified), the GI50 in the assay with SNB-75, in the assay with HCC 2998, in the assay on UO-31, in the assay on HOP-62, in the assay on K562 and in the assay with EKVX was > 100 µM (inactive) throughout. Also, the GI50 in the assay on HT-29 was > 100 µM (inactive); in the assay on TK-10, > 100 µM (inactive); in the assay on HL-60, > 100 µM (inactive); in the assay on A498, > 100 µM (inactive); with HCT-15 it was over 100 µM; with RXF 393, > 100 µM (inactive). In addition, the GI50 in the assay with NCI-H522, with 786-0 and in the assay with CCRF-CEM was > 100 µM (inactive) in each case.
